Laboratory results as given in PubChem BioAssay (NCI).
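Method: 48-hour compound exposure of cells in 96-well plates, five concentrations, linear interpolation of endpoints. TGI marks complete inhibition of growth.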

Experiments:
Assay in all cases: NCI-60 cell line screen, 48 h
[1] = tested on: UO-31 renal
[2] = tested on: M19-MEL melanoma
[3] = tested on: DLD-1 colon
[4] = tested on: KM20L2 colon
[5] = tested on: 786-0 renal
[6] = tested on: SW-620 colon
[7] = tested on: NCI-H23 lung
[8] = tested on: DMS 273 small cell lung
[9] = tested on: A498 renal
[10] = tested on: K-562 leukemia
[11] = tested on: EKVX NSCLC
[12] = tested on: MDA-MB-435
[13] = tested on: MDA-N

Row | SMILES | TGI [1] [µM] | TGI [2] [µM] | TGI [3] [µM] | TGI [4] [µM] | TGI [5] [µM] | TGI [6] [µM] | TGI [7] [µM] | TGI [8] [µM] | TGI [9] [µM] | TGI [10] [µM] | TGI [11] [µM] | TGI [12] [µM] | TGI [13] [µM]
1 | Cc1c(C(=O)CSc2nc3ccccc3c(=O)n2-c2ccccc2)c(=O)n(-c2ccccc2)n1C | 79.4 | > 100 | > 100 | > 100 | 38.9 | > 100 | > 100 | > 100 | > 100 | – | – | – | –
2 | COCOc1ccc(Cn2c(=O)n(C)c(=O)c3c2ncn3C)cc1[N+](=O)[O-] | > 100 | > 100 | > 100 | > 100 | > 100 | > 100 | > 100 | > 100 | – | > 100 | > 100 | – | –
3 | O=C(NC(Cc1ccc(I)cc1)C(=O)O)c1ccc(I)cc1 (stereo unspecified) | > 36.6 | > 100 | > 100 | > 100 | – | > 37.3 | > 100 | > 100 | > 100 | > 100 | > 83.6 | – | –
4 | COc1cc(C2CC(C)(Nc3ccccc3)Oc3cc4c(cc32)OCO4)cc(OC)c1OC (stereo unspecified) | 34.2 | – | – | – | > 78.4 | > 100 | > 33.6 | – | > 100 | > 100 | > 100 | 0.0688 | 0.183
5 | CC(=O)N/N=C1\NC(=O)C[C@H]2[C@@H]3CC=C4C[C@@H](OC(C)=O)CC[C@]4(C)[C@H]3CC[C@]12C | > 100 | – | – | – | 43.1 | > 100 | > 100 | – | 35.2 | > 100 | > 100 | > 100 | > 100
6 | CN(C)Cc1cc(C(=O)/C=C/c2ccc(O)cc2)cc(CN(C)C)c1O | > 100 | – | – | – | > 100 | > 100 | > 100 | – | > 100 | > 100 | > 100 | > 100 | > 100
7 | CC(=O)OCC1OC(n2cc([N+](=O)[O-])c(=O)[nH]c2=O)C(OC(C)=O)C(OC(C)=O)C1OC(C)=O (stereo unspecified) | > 100 | > 100 | > 100 | > 100 | > 100 | > 100 | > 100 | > 100 | > 100 | > 100 | > 100 | – | –
8 | CC(C(=O)n1nnc2ccccc21)N(c1ccccc1)c1ccccc1 (stereo unspecified) | > 100 | > 100 | > 100 | > 100 | > 100 | > 100 | > 100 | > 100 | – | > 100 | > 100 | – | –
9 | CC1CC[C@@]2(OC1)OC1C[C@H]3[C@@H]4CC[C@H]5CC(OC6OC(CO)C(OC7OC(CO)C(O)C(O)C7OC7OC(CO)C(O)C(O)C7O)C(O)C6O)CCC5(C)[C@H]4CCC3(C)C1[C@@H]2C (stereo partly specified) | 1.94 | – | – | – | 5.44 | 1.94 | 10.7 | – | 4.08 | 9.01 | 2.21 | 9.7 | 9.31
10 | C=CC[C@]12C[C@@H](C(=O)OC)N(C(=O)OC)[C@H]1N(S(=O)(=O)c1ccccc1)c1ccccc12 | > 100 | – | – | – | > 100 | > 100 | > 100 | – | > 100 | > 100 | > 100 | > 100 | > 100
11 | O=C1c2cc3c(cc2CC1Br)CCC3 (stereo unspecified) | 22.4 | – | – | – | 3.47 | 3 | 9.27 | – | 32.2 | 7.04 | 28.9 | 4.23 | 3.48
12 | O=S(=O)(O)c1cc2ccc1/C=C\c1ccc(cc1S(=O)(=O)O)N=Nc1ccc(c(S(=O)(=O)O)c1)/C=C\c1ccc(cc1S(=O)(=O)O)N=N2 | > 100 | > 100 | > 100 | > 100 | – | > 100 | > 100 | > 100 | > 100 | > 100 | > 100 | – | –
13 | NNC(=O)c1ccc[n+](CCc2ccccc2)c1 | > 100 | – | – | – | > 100 | > 100 | > 100 | – | > 100 | > 100 | > 100 | > 100 | > 100
14 | C=C[C@@H]1C(CO)=CCC2[C@H]1CCC1C(C)(C)C(=O)CC[C@]21C (stereo partly specified) | > 100 | – | – | – | > 100 | > 100 | > 100 | – | > 100 | > 100 | > 100 | > 100 | > 100
15 | COc1ccc(CC(O)CN2CCOCC2)cc1 (stereo unspecified) | > 100 | – | – | – | > 100 | > 100 | > 100 | – | > 100 | > 100 | > 100 | > 100 | > 100
16 | CC(C)/C(Cl)=N\OC(=O)Nc1ccc(C#N)cc1 | 21.2 | – | – | – | 11.8 | 3.36 | 30 | – | 27.7 | 4.82 | 7.31 | 20.8 | 17.3
17 | Cc1cn(C2OC(C)(CO)C(O)C2O)c(=O)[nH]c1=O (stereo unspecified) | > 100 | > 100 | > 100 | – | > 100 | > 100 | > 100 | > 100 | > 100 | > 100 | – | – | –
18 | CCCCC1c2c([nH]c3ccccc23)C2C(=O)N(c3ccc(OC)cc3)C(=O)C2C1CCC (stereo unspecified) | > 10 | – | – | – | > 10 | > 10 | > 10 | – | 6.71 | 7.43 | > 10 | 4.29 | 7.45
19 | C=CCOC(=O)CC[N+]1=CCC(c2ccccc2)(c2ccccc2)O1 | > 100 | – | – | – | > 100 | > 100 | > 100 | – | > 100 | > 100 | > 100 | > 100 | > 100
20 | CN(C)CCCN1C(=S)N(CCCN(C)C)c2c3cc(O)ccc3nc3c([N+](=O)[O-])ccc1c23 | 18.7 | – | – | – | 8.55 | > 42 | 17.1 | – | 5.47 | > 33 | 16.2 | 15.3 | 34.9
21 | Cc1cc(=O)c2c([nH]1)NS(=O)(=O)NC2=O | > 100 | > 100 | > 100 | – | > 100 | > 100 | > 100 | > 100 | > 100 | > 100 | > 100 | – | –
